This is an account of results in patent publication US9255090B2, “Heterocyclyl derivatives and their use as prostaglandin D2 receptor modulators” (Actelion Pharmaceuticals Ltd., priority 2012, dated 2016).

Assay [1] deals with hCRTH2 receptor (Homo sapiens (Human), UniProt Q9Y5Y4). Kind of assay: hCRTH2 receptor membranes radioligand (3H-PGD2) displacement assay. The following applies: 3H-PGD2 radioligand displacement, HEK293-hCRTH2 membranes. Format: binding. Put shortly:
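HEK293-hCRTH2 membranes, 20 μg/well; 3H-PGD2 added at 2.5 nM; binding buffer 50 mM Tris, 10 mM MnCl2, 1 mM EDTA, pH 7.0; 90 min RT; GF/C filtration, scintillation count. Nonspecific binding: PGD2 at […].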

Assay [2] has as its system eosinophils. Kind of assay: Eosinophil shape change assay with human plasma. The settings on record: human plasma (50%), PGD2 100 nM activation, antagonistic activity. It is filed as cell-based. The source says:
Eosinophil Shape Change Assay with Human Plasma
After obtaining informed consent, blood samples were drawn by venipuncture according to the protocol approved by the ethics committee of Basel, Switzerland. Polymorphonuclear leukocytes (containing eosinophils, basophils and neutrophils) were isolated using the Polymorphprep™ method (Axis-Shield). […] The polymorphonuclear cell fraction was harvested and depleted for erythrocytes by hypotonic saline lysis.
The polymorphonuclear cells were resuspended in assay buffer (1×PBS with Ca^2+/Mg^2+ supplemented with 0.1% BSA, 10 mM HEPES, and 10 mM Glucose, pH 7.4) at 5×10^6 cells/ml and stained with anti-CD49d-APC ((APC=Allophycocyanin) for 1 hour at RT. Test compounds, at various concentrations, were preincubated 10 min in human plasma (anticoagulated with a thrombin inhibitor). Then, human plasma was added to the polymorphonuclear cells to 50% of final assay volume with polymorphonuclear cells at 4×10^6 cells/ml. After incubation for 10 minutes at 37° C., the polymorphonuclear cells were activated for 5 min at 37° C. by addition of PGD2 at 100 nM final concentration. Activation was stopped by addition of 0.5 ml paraformaldehyde (1%).
Immediately after fixation with paraformaldehyde, the samples were analyzed by FACSCanto flow cytometer (BD Biosciences) and target cells were identified by their forward-scatter (FSC) and side-scatter (SSC) characteristics. Eosinophils were identified by the anti-CD49d-APC signal and their characteristic side-scatter (SSC) profile. Shape change responses, indicative of eosinophil activation, were quantified as the percent of cells with an increased forward-scatter.

Sequence of hCRTH2 receptor (Q9Y5Y4 whole entry): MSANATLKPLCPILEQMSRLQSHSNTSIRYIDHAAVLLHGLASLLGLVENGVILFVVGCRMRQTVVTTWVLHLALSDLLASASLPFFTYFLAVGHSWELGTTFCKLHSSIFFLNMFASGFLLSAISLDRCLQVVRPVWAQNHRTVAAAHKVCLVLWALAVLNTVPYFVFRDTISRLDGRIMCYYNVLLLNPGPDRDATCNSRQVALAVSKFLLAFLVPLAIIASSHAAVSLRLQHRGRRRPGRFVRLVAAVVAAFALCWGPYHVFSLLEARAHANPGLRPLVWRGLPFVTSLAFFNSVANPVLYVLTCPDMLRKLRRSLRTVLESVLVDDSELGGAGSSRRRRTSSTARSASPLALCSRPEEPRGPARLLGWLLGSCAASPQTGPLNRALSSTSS

In general, IC50 refers to the concentration needed to halve the response being measured. Higher therefore signals a need for much substance. As for `CCOc1ccc(CC(=O)O)cc1-c1ccc(F)c2c1CN(C(=O)CCc1ccccn1)CC2` [Example 348, {4-Ethoxy-3-[5-fluoro-2-(3-pyridin-2-yl-propionyl)-1,2,3,4-tetrahydro-isoquinolin-8-yl]-phenyl}-acetic acid], the IC50 in assay [1] was 0.0027 µM; in assay [2] (Homo sapiens, Eosinophil) it was 0.016 µM. Turning to `CCOc1ccc(CC(=O)O)cc1-c1ccc(F)c2c1CN(C(=O)CC(C)c1ccccn1)CC2` (stereo not shown) [Example 204, {4-Ethoxy-3-[5-fluoro-2-(3-pyridin-2-yl-butyryl)-1,2,3,4-tetrahydro-isoquinolin-8-yl]-phenyl}-acetic acid], the results for the IC50 in assay [1] and in assay [2] were 0.0029 µM and 0.03 µM, respectively. Take `COc1ccc(CC(=O)O)cc1-c1ccc(F)c2c1CN(C(=O)CC1(c3ccccc3)CC1)CC2` [Example 258, (3-{5-Fluoro-2-[2-(1-phenyl-cyclopropyl)-acetyl]-1,2,3,4-tetrahydro-isoquinolin-8-yl}-4-methoxy-phenyl)-acetic acid]: the half-maximal inhibitory concentration (IC50) in assay [1] is 0.0028 µM; in assay [2] (Homo sapiens, Eosinophil) it was 0.101 µM.

Consider `O=C(O)Cc1ccc(OCCF)c(-c2ccc(F)c3c2CN(C(=O)OCc2ccccc2)CC3)c1` [Example 422, 8-[5-Carboxymethyl-2-(2-fluoro-ethoxy)-phenyl]-5-fluoro-3,4-dihydro-1H-isoquinoline-2-carboxylic acid benzyl ester], for which the IC50 in assay [1] is 0.0085 µM; in assay [2] (Homo sapiens, Eosinophil), 0.008 µM.

With `CCOc1ccc(CC(=O)O)cc1-c1ccc(F)c2c1CN(C(=O)CC(C)c1cccc(C)n1)CC2` (racemic) [Example 328], the IC50 in assay [1] worked out at 0.0018 µM; in assay [2] (Homo sapiens, Eosinophil) it was 0.015 µM. Regarding `CCOc1cc(CC(=O)O)ccc1-c1ccc(F)c2c1CN(C(=O)OCc1cccc(F)c1)CC2` [Example 405, 8-(4-Carboxymethyl-2-ethoxy-phenyl)-5-fluoro-3,4-dihydro-1H-isoquinoline-2-carboxylic acid 3-fluoro-benzyl ester], the IC50 turned out to be 0.0027 µM in assay [1] and 0.02 µM in assay [2] (Homo sapiens, Eosinophil). Regarding `CC(C)Oc1ccc(CC(=O)O)cc1-c1ccc(F)c2c1CN(C(=O)OCc1ccccc1)CC2` [Example 22, 8-(5-Carboxymethyl-2-isopropoxy-phenyl)-5-fluoro-3,4-dihydro-1H-isoquinoline-2-carboxylic acid benzyl ester], the IC50 in assay [1] was 0.00472 µM; in assay [2] (Homo sapiens, Eosinophil) it was 0.038 µM. With `COc1ccc(CC(=O)O)cc1-c1ccc(F)c2c1CN(C(=O)[C@@H]1C[C@H]1c1ccccc1)CC2` (racemic) [Example 60, (±)-{3-[5-Fluoro-2-(trans-2-phenyl-cyclopropanecarbonyl)-1,2,3,4-tetrahydro-isoquinolin-8-yl]-4-methoxy-phenyl}-acetic acid], the IC50 in assay [1] is 0.00264 µM; in assay [2] (Homo sapiens, Eosinophil), 0.013 µM. For the compound `COc1ccc(CC(=O)O)cc1-c1ccc(F)c2c1CN(C(=O)OCc1cccc(F)c1)CC2` [Example 138, 8-(5-Carboxymethyl-2-methoxy-phenyl)-5-fluoro-3,4-dihydro-1H-isoquinoline-2-carboxylic acid 3-fluoro-benzyl ester], the IC50 in assay [1] was found to be 0.00542 µM; in assay [2] (Homo sapiens, Eosinophil), 0.908 µM. For the compound `COc1ccc(CC(=O)O)cc1-c1ccc(F)c2c1CN(C(=O)CC1CCc3ccccc31)CC2` (racemic) [Example 261], the concentration for half-maximal inhibition (IC50) in assay [1] amounted to 0.0031 µM; in assay [2] (Homo sapiens, Eosinophil) it was 0.086 µM. Regarding `CCOc1cc(CC(=O)O)ccc1-c1ccc(F)c2c1CN(C(=O)OCc1ccccc1)CC2` [Example 410, 8-(4-Carboxymethyl-2-ethoxy-phenyl)-5-fluoro-3,4-dihydro-1H-isoquinoline-2-carboxylic acid benzyl ester], the IC50 is 0.026 µM in assay [1] and 0.013 µM in assay [2] (Homo sapiens, Eosinophil). With `COc1ccc(CC(=O)O)cc1-c1ccc(F)c2c1CN(C(=O)[C@@H]1C[C@H]1c1ccc(F)cc1)CC2` (racemic) [Example 1, (±)-(3-{5-Fluoro-2-[trans-2-(4-fluoro-phenyl)-cyclopropanecarbonyl]-1,2,3,4-tetrahydro-isoquinolin-8-yl}-4-methoxy-phenyl)-acetic acid], the IC50 in assay [1] stood at 0.00199 µM; in assay [2] (Homo sapiens, Eosinophil) it was 0.008 µM. On to `CCOc1ccc(CC(=O)O)cc1-c1ccc(F)c2c1CN(C(=O)CC1(c3ccccc3)CC1)CC2` [Example 222, (4-Ethoxy-3-{5-fluoro-2-[2-(1-phenyl-cyclopropyl)-acetyl]-1,2,3,4-tetrahydro-isoquinolin-8-yl}-phenyl)-acetic acid], for which the IC50 in assay [1] amounted to 0.0264 µM; in assay [2] (Homo sapiens, Eosinophil), 0.021 µM. On to `CCOc1cc(CC(=O)O)ccc1-c1ccc(F)c2c1CN(C(=O)CC1OCCc3ccccc31)CC2` (stereo not shown) [Example 206, {3-Ethoxy-4-[5-fluoro-2-(2-isochroman-1-yl-acetyl)-1,2,3,4-tetrahydro-isoquinolin-8-yl]-phenyl}-acetic acid], for which the results for the IC50 in assay [1] and in assay [2] were 0.0024 µM and 0.014 µM, respectively. In the case of `COc1cc(CC(=O)O)ccc1-c1ccc(F)c2c1CN(C(=O)CC1CCOc3ccccc31)CC2` (stereo not shown) [Example 200, {4-[2-(2-Chroman-4-yl-acetyl)-5-fluoro-1,2,3,4-tetrahydro-isoquinolin-8-yl]-3-methoxy-phenyl}-acetic acid], the IC50 in assay [2] (Homo sapiens, Eosinophil) is 0.05 µM. Take `CCOc1cc(CC(=O)O)ccc1-c1ccc(F)c2c1CN(C(=O)CC1OCCc3ccccc31)CC2` (racemic) [Example 229]: the 50% inhibitory concentration (IC50) was determined as 0.0007 µM in assay [1] and 0.015 µM in assay [2] (Homo sapiens, Eosinophil). As for `CCOc1ccc(CC(=O)O)cc1-c1ccc(F)c2c1CN(C(=O)CC1COCc3ccccc31)CC2` (stereo not shown) [Example 210, {4-Ethoxy-3-[5-fluoro-2-(2-isochroman-4-yl-acetyl)-1,2,3,4-tetrahydro-isoquinolin-8-yl]-phenyl}-acetic acid], the IC50 in assay [2] was 0.011 µM. This counts as double-digit nanomolar. Consider `COc1ccc(CC(=O)O)cc1-c1ccc(F)c2c1CN(C(=O)CC1CC(C)(C)Oc3ccccc31)CC2` (racemic) [Example 240], for which the IC50 in assay [2] (Homo sapiens, Eosinophil) came out at 0.031 µM. In turn, `COc1cc(CC(=O)O)ccc1-c1ccc(F)c2c1CN(C(=O)CC1CCOc3ccccc31)CC2` (racemic) [Example 359] had an IC50 in assay [2] (Homo sapiens, Eosinophil) of 0.028 µM. Turning to `CCOc1ccc(CC(=O)O)cc1-c1ccc(F)c2c1CN(C(=O)CC1COc3ccccc31)CC2` (stereo not shown) [Example 207, {3-[2-(2-2,3-Dihydro-benzofuran-3-yl-acetyl)-5-fluoro-1,2,3,4-tetrahydro-isoquinolin-8-yl]-4-ethoxy-phenyl}-acetic acid], the midpoint of inhibition in assay [2], the IC50, lay at 0.015 µM.

In turn, `CCOc1ccc(CC(=O)O)cc1-c1ccc(F)c2c1CN(C(=O)CC1COc3ccccc31)CC2` (stereo not shown) [Example 208, {3-[2-(2-2,3-Dihydro-benzofuran-3-yl-acetyl)-5-fluoro-1,2,3,4-tetrahydro-isoquinolin-8-yl]-4-ethoxy-phenyl}-acetic acid] yielded an IC50 in assay [2] of 0.042 µM. With `COc1ccc(CC(=O)O)cc1-c1ccc(F)c2c1CN(C(=O)[C@@H]1C[C@H]1c1ccccc1)C2` (racemic) [Example 37, (±)-{3-[7-Fluoro-2-(trans-2-phenyl-cyclopropanecarbonyl)-2,3-dihydro-1H-isoindol-4-yl]-4-methoxy-phenyl}-acetic acid], the IC50 in assay [2] (Homo sapiens, Eosinophil) came to 0.289 µM. For `CCOc1ccc(CC(=O)O)cc1-c1ccc(F)c2c1CN(C(=O)CC1COc3ccccc31)CC2` (racemic) [Example 227], in assay [2] (Homo sapiens, Eosinophil), the IC50 turned out to be 0.038 µM. `COc1ccc(CC(=O)O)cc1-c1ccc(F)c2c1CN(C(=O)[C@@H]1C[C@H]1c1cccc(F)c1)CC2` (racemic) [Example 48, (±)-(3-{5-Fluoro-2-[trans-2-(3-fluoro-phenyl)-cyclopropanecarbonyl]-1,2,3,4-tetrahydro-isoquinolin-8-yl}-4-methoxy-phenyl)-acetic acid] returned a concentration for half-maximal inhibition (IC50) in assay [2] (Homo sapiens, Eosinophil) of 0.042 µM. With `COc1ccc(CC(=O)O)cc1-c1ccc(F)c2c1CN(C(=O)[C@@H]1C[C@H]1c1cccc(F)c1)CC2` [Example 65, (3-{5-Fluoro-2-[(1R,2R)-2-(3-fluoro-phenyl)-cyclopropanecarbonyl]-1,2,3,4-tetrahydro-isoquinolin-8-yl}-4-methoxy-phenyl)-acetic acid], the IC50 in assay [2] (Homo sapiens, Eosinophil) came to 0.01 µM. Consider `COc1cc(CC(=O)O)ccc1-c1ccc(F)c2c1CN(C(=O)CC1CCOc3ccccc31)CC2` (stereo not shown) [Example 201, {4-[2-(2-Chroman-4-yl-acetyl)-5-fluoro-1,2,3,4-tetrahydro-isoquinolin-8-yl]-3-methoxy-phenyl}-acetic acid], for which the IC50 in assay [2] worked out at 0.031 µM. `CCOc1ccc(CC(=O)O)cc1-c1ccc(F)c2c1CN(C(=O)CC1COCc3ccccc31)CC2` (stereo not shown) [Example 209, {4-Ethoxy-3-[5-fluoro-2-(2-isochroman-4-yl-acetyl)-1,2,3,4-tetrahydro-isoquinolin-8-yl]-phenyl}-acetic acid]: the IC50 in assay [2] (Homo sapiens, Eosinophil) stood at 0.013 µM. This counts as double-digit nanomolar.

In turn, `CCOc1ccc(CC(=O)O)cc1-c1ccc(F)c2c1CN(C(=O)CC1COCc3ccccc31)CC2` (racemic) [Example 228] registered an IC50 in assay [2] (Homo sapiens, Eosinophil) of 0.008 µM.
